Data taken from ChEMBL document CHEMBL4706608, “Design and synthesis of 3-(4-pyridyl)-5-(4-sulfamido-phenyl)-1,2,4-oxadiazole derivatives as novel GSK-3β inhibitors and evaluation of their potential as multifunctional anti-Alzheimer agents” (Eur J Med Chem, 2021).
The source made the active and inactive calls. No cut-off for these calls is given here.

What was measured:
[1] = target: T1, Glycogen synthase kinase-3 beta (Homo sapiens, UniProt P49841); assay: Inhibition of GSK3beta (unknown origin) measured after 40 mins by ADP-Glo assay
Target sequence in this assay (P49841 whole entry): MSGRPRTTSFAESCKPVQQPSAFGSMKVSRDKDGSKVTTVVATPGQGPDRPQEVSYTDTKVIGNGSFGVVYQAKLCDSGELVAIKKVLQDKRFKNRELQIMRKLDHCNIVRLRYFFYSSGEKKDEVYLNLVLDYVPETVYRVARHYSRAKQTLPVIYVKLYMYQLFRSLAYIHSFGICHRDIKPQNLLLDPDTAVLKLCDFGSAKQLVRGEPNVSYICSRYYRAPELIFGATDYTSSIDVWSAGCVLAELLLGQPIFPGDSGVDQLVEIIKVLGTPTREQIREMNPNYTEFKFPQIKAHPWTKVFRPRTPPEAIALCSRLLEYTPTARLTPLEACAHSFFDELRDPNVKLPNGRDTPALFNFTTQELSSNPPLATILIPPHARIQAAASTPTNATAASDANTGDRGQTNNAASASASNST

BV-2 [2] = assay: Anti-neuroinflammation in mouse BV2 cells assessed as inhibition of LPS-induced NO production preincubated for 1 hr followed by LPS addition measured after 24 hrs by Griess reagent based assay; assay type: functional, cell-based
HepG2 [3] = assay: Increase in glucose consumption in human HepG2 cells at 20 uM after 24 hrs by glucose oxidase assay; assay type: functional, cell-based
HepG2 [4] = assay: Increase in glucose consumption in human HepG2 cells at 20 uM after 24 hrs by glucose oxidase assay (reference value: 1.36 mM); assay type: functional
PC-12 [5] = assay: Neuroprotective activity against H2O2-induced cytotoxicity in rat PC12 cells assessed as increase in cell viability at 10 uM preincubated for 3 hrs followed by H2O2 addition and measured after 24 hrs by MTT assay (reference value: 24.8 to 41.7%); assay type: functional
PC-12 [6] = assay: Neuroprotective activity against H2O2-induced cytotoxicity in rat PC12 cells assessed as increase in cell viability at 30 uM preincubated for 3 hrs followed by H2O2 addition and measured after 24 hrs by MTT assay (reference value: 24.8 to 41.7%); assay type: functional
[7] = Cytotoxicity against rat PC-12 cells assessed as cell viability at 30 uM by MTT assay relative to control; assay type: cell-based; conditions: read-out: Activity
[8] = Cytotoxicity against rat PC-12 cells assessed as cell viability at 50 uM by MTT assay relative to control; assay type: cell-based; conditions: read-out: Activity
HepG2 [9] = assay: Cytotoxicity against human HepG2 cells assessed as cell viability at 10 to 50 uM after 24 hrs by MTT assay; assay type: cell-based; conditions: hepg2, 24 h, dose 10-50 µM
L02 = assay: Cytotoxicity against human L-02 cells assessed as decreased cell viability at 50 uM after 24 hrs by MTT assay; assay type: cell-based; conditions: l02, 24 h
[10] = Antioxidant activity assessed as DPPH radical scavenging activity after 2 hrs by microplate method; assay type: functional; conditions: dose 1-1000 µM
PC-12 [11] = assay: Inhibition of H2O2-induced intracellular ROS production in rat PC-12 cells pretreated for 6 hrs followed by H2O2 addition measured after 18 hrs by DCFH-DA assay; assay type: functional, cell-based; conditions: dose 1-50 µM, time 24.0 hrs
SH-SY5Y = assay: Inhibition of H2O2-induced intracellular ROS production in human SH-SY5Y cells pretreated for 6 hrs followed by H2O2 addition measured after 18 hrs by DCFH-DA assay; assay type: functional, cell-based; conditions: dose 1-50 µM, time 24.0 hrs
BV-2 [12] = assay: Antiinflammatory activity in LPS-stimulated mouse BV-2 cells assessed as decrease in TNF-alpha level at 1 to 10 uM preincubated for 1 hr followed by LPS addition measured after 24 hrs by ELISA; assay type: functional, cell-based; conditions: dose 1-10 µM, time 25.0 hrs
BV-2 [13] = assay: Antiinflammatory activity in LPS-stimulated mouse BV-2 cells assessed as decrease in IL-1beta level at 1 to 10 uM preincubated for 1 hr followed by LPS addition measured after 24 hrs by ELISA; assay type: functional, cell-based; conditions: dose 1-10 µM, time 25.0 hrs
BV-2 [14] = assay: Antiinflammatory activity in LPS-stimulated mouse BV-2 cells assessed as decrease in cox-2 level at 1 to 10 uM preincubated for 1 hr followed by LPS addition measured after 24 hrs by Western blot analysis; assay type: functional, cell-based; conditions: dose 1-10 µM, time 25.0 hrs
BV-2 [15] = assay: Antiinflammatory activity in LPS-stimulated mouse BV-2 cells assessed as decrease in iNOS level at 1 to 10 uM preincubated for 1 hr followed by LPS addition measured after 24 hrs by Western blot analysis; assay type: functional, cell-based; conditions: dose 1-10 µM, time 25.0 hrs
[16] = target: T1, Glycogen synthase kinase-3 beta; assay: Inhibition of GSK-3beta in human SH-SY5Y cells assessed as decrease in amyloid beta-induced Tau hyperphosphorylation at Ser396 pretreated for 1 hr followed Amyloid beta addition measured after 6 hrs by Western blot analysis; assay type: cell-based; conditions: dose 5-15 µM, time 7.0 hrs
Target sequence in this assay (P49841 whole entry, looked up): as the sequence (P49841 whole entry) above

[17] = Apparent permeability from apical to basolateral side in MDCK2-MDR1 measured upto 120 mins; assay type: ADME, Canis lupus familiaris; conditions: dog, mdck-ii, 2 h
[18] = Apparent permeability from basolateral to apical side in MDCK2-MDR1 measured upto 120 mins; assay type: ADME, Canis lupus familiaris, MDCK-II; conditions: dog
[19] = Efflux ratio of apparent permeability across basolateral to apical membrane to apical to basolateral membrane in MDCK2-MDR1 measured upto 120 mins; assay type: ADME, tissue-based, Canis lupus familiaris, MDCK-II; conditions: dog
Mus musculus [20] = assay: Cognitive enhancing effect in orally dosed C57BL mouse model of scopolamine-induced memory impairment assessed as escape latency administered for 7 days and measured after 30 mins at 4th day of training session by Morris water maze test; assay type: functional, organism-based; conditions: dose 10-30 mg/kg, time 7.0 day
Mus musculus [21] = assay: Cognitive enhancing effect in C57BL mouse model of scopolamine-induced memory impairment assessed as time in target quadrant at 10 to 30 mg/kg, po administered for 7 days and measured after 30 mins at 5th day of training session by Morris water maze test; assay type: functional, organism-based; conditions: dose 10-30 mg/kg, time 7.0 day
Mus musculus [22] = assay: Cognitive enhancing effect in C57BL mouse model of scopolamine-induced memory impairment assessed as number of virtual platform crossing at 10 to 30 mg/kg, po administered for 7 days and measured after 30 mins at 5th day of training session by Morris water maze test; assay type: functional, organism-based; conditions: dose 10-30 mg/kg, time 7.0 day
[23] = Effect on body weight in C57BL mouse model of scopolamine-induced memory impairment model at 10 to 30 mg/kg, po administered for 7 days; assay type: ADME, organism-based; conditions: in vivo, 168 h, dose 10-30 mg/kg, time 7 day
[24] = Effect on swimming speed in C57BL mouse model of scopolamine-induced memory impairment model at 10 to 30 mg/kg, po administered for 7 days; assay type: ADME, organism-based; conditions: in vivo, 168 h, dose 10-30 mg/kg, time 7 day
[25] = Cytotoxicity against human L-02 cells assessed as decreased cell viability at 50 uM after 24 hrs by MTT assay relative to control; assay type: cell-based, L02; conditions: read-out: INH

Row | IC50 [1] [nM] | IC50 (BV-2 [2]) [nM] | inhibition [16] | permeability [17] | SMILES | Activity (HepG2 [4]) [mM] | Activity (PC-12 [5]) [%] | Activity (PC-12 [6]) [%] | viability at 30 µM [7] [%] | viability at 50 µM [8] [%] | Activity (HepG2 [9]) | Activity [10] | inhibition (PC-12 [11]) | inhibition (SH-SY5Y) | inhibition (BV-2 [12]) | inhibition (BV-2 [13]) | inhibition (BV-2 [14]) | inhibition (BV-2 [15]) | further results
1 | 190 | 6940 | Dose-dependent effect | 1.89 10^-5 cm/s | CC(C)(C)c1ccc(S(=O)(=O)Nc2ccc(-c3nc(-c4ccnc(Nc5cccc(Cl)c5)c4)no3)cc2)cc1 | 3.43 | 54.3 | 64.9 | 99.2 | 97.2 | Non-Toxic | Dose-dependent effect | Dose-dependent effect | Dose-dependent effect | Active | Active | Active | Active | Activity (HepG2 [3]): Active; Activity (L02): Non-Toxic; Papp B→A at 2 h ([18]; MDCK-MDR1, read-out: permeability): 19.3 ×10⁻⁶ cm/s; efflux ratio at 2 h ([19]; MDCK-MDR1): 1.02; Activity (Mus musculus [20]): Dose-dependent effect; Activity (Mus musculus [21]): Active; Activity (Mus musculus [22]): Active; Activity [23]: Non-Toxic; Activity [24]: Non-Toxic
2 | 1020 | 470 | Dose-dependent effect | 1.31 10^-5 cm/s | CC(=O)c1ccc(S(=O)(=O)Nc2ccc(-c3nc(-c4ccnc(Nc5ccc(OC(F)(F)F)cc5)c4)no3)cc2)cc1 | 3.28 | 57.1 | 68.6 | 99.1 | 98.1 | Non-Toxic | Dose-dependent effect | Dose-dependent effect | Dose-dependent effect | Active | Active | Active | Active | cytotoxicity at 24 h, 50 µM [25]: 20%; permeability ([18]; mdck-ii, 2 h): 1.66 10^-5 cm/s; Ratio ([19]; mdck-ii, 2 h): 1.27
